Assay results reported in patent US9518052B2, “Pyrazolopyridines and pyrazolopyrimidines” (Pfizer Inc., priority 2014, dated 2016).
Counter-ions that a name gives are not always drawn.

Columns and labels:
Format in all cases: biochemical
Settings in all cases: Caliper assay at 1 mM ATP
[1] = molecular target: JAK3 (Homo sapiens (Human), UniProt P52333); experiment: JAK Caliper Enzyme Assay at 1 mM ATP (JAK3)
Description: (§1) JAK Caliper Enzyme Assay at 1 mM ATP
(§2) Test article was solubilized in dimethyl sulfoxide (DMSO) to a stock concentration of 30 mM. An 11-point half log dilution series was created in DMSO with a top concentration of 600 μM. […] The compound plates were diluted 1 to 60 resulting in a top final assay compound concentration of 10 μM and a 2% DMSO concentration.
(§3) Test article and assay controls were added to a 384-well plate. Reaction mixtures contained 20 mM HEPES, pH 7.4, 10 mM magnesium chloride, 0.01% bovine serum albumin (BSA), 0.0005% Tween 20, 1 mM ATP and 1 μM peptide substrate. […] Enzyme concentrations and incubation times were optimized for each new enzyme preps and were modified slightly over time to ensure 20%-30% phosphorylation. The assays were stopped with a final concentration of 10 mM EDTA, 0.1% Coating Reagent and 100 mM HEPES, pH=7.4. The assay plates were placed on a Caliper Life Science Lab Chip 3000 (LC3000) instrument, and each well was sampled using appropriate separation conditions to measure the unphosphorylated and phosphorylated peptide.

[2] = molecular target: JAK2 (Homo sapiens (Human), UniProt O60674); experiment: JAK Caliper Enzyme Assay at 1 mM ATP (JAK2)
Description: as §1, §2, §3

[3] = molecular target: TYK2 (Homo sapiens (Human), UniProt P29597); experiment: JAK Caliper Enzyme Assay at 1 mM ATP (TYK2)
Description: as §1, §2, §3

[4] = molecular target: JAK1 (Homo sapiens (Human), UniProt P23458); experiment: JAK Caliper Enzyme Assay at 1 mM ATP (JAK1)
Description: as §1, §2, §3

TYK2, sequence (P29597 whole entry, species assumed): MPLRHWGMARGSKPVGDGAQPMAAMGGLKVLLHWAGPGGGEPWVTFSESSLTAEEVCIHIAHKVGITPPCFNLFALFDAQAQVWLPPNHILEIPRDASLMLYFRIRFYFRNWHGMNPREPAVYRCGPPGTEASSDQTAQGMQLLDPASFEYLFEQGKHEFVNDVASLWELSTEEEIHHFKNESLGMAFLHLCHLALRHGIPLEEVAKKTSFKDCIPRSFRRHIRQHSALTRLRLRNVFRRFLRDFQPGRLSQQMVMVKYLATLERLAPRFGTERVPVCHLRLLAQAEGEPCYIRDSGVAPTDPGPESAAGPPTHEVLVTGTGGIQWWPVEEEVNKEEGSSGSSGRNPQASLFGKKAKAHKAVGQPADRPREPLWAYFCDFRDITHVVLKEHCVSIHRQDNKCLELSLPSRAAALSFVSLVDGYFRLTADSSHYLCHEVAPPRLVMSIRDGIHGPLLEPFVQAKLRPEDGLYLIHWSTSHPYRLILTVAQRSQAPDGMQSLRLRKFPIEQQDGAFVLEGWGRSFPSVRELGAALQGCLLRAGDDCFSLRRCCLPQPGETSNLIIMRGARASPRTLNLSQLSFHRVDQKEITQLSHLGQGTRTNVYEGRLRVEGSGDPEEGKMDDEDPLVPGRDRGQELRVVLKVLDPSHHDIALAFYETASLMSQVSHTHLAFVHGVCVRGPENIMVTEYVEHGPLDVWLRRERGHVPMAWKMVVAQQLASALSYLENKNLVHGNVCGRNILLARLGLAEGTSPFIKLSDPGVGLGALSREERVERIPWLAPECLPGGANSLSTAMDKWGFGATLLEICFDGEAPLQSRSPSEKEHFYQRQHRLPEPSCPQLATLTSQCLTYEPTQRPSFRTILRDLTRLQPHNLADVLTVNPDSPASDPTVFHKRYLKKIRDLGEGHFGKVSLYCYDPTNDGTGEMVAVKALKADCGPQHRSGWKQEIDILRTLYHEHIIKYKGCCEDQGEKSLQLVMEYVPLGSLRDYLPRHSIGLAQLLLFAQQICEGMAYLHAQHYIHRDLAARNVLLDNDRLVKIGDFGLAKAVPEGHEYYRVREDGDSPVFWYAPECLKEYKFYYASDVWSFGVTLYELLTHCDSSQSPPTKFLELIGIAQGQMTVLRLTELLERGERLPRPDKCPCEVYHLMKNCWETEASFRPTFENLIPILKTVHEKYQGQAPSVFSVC
JAK3, sequence (P52333 whole entry, species assumed): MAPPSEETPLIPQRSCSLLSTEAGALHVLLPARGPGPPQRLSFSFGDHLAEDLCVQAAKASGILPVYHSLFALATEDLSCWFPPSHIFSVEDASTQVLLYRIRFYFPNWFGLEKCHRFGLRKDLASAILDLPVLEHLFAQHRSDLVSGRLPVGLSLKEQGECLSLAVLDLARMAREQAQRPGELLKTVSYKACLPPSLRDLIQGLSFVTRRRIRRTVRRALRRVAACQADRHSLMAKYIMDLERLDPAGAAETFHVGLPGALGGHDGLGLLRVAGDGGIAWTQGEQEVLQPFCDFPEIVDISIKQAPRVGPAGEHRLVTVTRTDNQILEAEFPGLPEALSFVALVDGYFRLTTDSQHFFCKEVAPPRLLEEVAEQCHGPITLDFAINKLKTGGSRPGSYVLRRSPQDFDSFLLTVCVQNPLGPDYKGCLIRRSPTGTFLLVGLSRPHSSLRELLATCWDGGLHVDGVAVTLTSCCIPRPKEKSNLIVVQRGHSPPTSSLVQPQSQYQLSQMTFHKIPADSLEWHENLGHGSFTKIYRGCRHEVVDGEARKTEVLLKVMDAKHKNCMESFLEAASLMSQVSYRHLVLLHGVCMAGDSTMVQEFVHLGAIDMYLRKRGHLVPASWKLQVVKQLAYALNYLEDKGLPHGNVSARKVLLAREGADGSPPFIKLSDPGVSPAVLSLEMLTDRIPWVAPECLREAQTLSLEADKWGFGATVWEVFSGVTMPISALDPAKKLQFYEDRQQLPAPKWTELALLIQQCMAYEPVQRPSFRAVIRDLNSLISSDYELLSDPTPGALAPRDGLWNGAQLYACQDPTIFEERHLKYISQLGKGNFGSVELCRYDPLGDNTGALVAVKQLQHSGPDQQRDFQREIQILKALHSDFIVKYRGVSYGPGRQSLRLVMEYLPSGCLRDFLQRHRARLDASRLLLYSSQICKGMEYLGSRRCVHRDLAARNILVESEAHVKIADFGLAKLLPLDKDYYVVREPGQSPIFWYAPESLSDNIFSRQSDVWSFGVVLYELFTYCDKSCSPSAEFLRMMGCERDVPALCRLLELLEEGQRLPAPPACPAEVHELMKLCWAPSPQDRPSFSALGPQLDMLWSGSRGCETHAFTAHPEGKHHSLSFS
JAK2, sequence (O60674 whole entry, species assumed): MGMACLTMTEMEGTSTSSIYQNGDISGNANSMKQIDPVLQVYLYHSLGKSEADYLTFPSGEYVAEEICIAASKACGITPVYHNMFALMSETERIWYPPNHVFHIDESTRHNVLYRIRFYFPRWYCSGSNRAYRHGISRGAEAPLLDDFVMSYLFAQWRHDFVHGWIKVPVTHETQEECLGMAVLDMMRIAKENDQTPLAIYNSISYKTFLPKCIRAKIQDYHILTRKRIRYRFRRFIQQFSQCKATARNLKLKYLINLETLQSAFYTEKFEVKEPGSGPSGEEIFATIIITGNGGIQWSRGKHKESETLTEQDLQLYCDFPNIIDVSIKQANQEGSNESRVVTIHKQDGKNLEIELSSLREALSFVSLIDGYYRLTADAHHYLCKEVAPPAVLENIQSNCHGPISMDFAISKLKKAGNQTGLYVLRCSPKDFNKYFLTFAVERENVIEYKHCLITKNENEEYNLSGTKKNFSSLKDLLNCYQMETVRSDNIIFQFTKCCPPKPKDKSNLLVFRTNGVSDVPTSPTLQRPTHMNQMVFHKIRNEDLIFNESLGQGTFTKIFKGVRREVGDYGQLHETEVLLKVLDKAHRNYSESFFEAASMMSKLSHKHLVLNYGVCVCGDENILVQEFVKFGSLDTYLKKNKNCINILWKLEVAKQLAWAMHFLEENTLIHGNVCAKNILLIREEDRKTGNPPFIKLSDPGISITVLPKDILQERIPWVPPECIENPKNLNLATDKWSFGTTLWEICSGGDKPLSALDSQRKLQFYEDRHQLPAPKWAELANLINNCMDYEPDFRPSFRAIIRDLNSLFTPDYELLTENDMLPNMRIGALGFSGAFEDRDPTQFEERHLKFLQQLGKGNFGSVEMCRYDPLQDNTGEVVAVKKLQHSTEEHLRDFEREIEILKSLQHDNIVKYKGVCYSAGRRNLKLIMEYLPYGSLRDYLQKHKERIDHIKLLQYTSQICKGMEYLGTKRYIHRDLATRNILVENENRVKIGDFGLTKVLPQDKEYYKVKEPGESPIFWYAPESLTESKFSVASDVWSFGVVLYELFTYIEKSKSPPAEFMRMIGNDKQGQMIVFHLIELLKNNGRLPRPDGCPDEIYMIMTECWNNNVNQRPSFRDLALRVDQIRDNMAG
JAK1, sequence (P23458 whole entry, species assumed): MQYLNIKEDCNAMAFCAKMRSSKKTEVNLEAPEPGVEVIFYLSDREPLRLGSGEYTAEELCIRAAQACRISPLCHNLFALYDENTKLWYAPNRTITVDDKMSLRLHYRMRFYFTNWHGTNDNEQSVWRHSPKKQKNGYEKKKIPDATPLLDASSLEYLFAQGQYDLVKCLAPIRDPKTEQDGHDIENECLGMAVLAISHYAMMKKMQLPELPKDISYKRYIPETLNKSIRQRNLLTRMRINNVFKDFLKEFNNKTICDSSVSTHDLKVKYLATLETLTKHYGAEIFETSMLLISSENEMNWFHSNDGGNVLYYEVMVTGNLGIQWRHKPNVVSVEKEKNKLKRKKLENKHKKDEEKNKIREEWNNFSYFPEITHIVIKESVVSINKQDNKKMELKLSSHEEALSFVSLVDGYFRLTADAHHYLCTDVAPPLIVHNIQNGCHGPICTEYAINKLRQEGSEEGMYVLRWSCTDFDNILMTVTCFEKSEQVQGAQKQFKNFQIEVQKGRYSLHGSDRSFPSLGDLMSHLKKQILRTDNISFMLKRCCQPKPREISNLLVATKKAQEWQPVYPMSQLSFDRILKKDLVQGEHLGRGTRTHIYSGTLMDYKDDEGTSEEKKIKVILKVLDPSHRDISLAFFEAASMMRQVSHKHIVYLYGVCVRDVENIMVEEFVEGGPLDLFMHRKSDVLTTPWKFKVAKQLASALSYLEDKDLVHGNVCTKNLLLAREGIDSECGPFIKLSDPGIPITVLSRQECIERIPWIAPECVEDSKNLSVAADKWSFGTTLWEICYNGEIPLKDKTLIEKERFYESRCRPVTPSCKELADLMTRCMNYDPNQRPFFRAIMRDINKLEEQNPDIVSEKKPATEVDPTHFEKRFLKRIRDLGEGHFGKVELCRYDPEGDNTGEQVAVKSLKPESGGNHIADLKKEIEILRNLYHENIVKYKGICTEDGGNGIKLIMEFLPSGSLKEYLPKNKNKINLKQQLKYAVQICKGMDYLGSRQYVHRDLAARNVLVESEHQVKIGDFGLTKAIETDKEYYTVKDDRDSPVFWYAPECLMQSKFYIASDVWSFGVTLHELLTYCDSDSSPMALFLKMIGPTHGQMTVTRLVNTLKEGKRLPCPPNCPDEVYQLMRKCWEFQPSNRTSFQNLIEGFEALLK

Row | Structure (SMILES) | IC50 [1] [nM] | IC50 [2] [nM] | IC50 [3] [nM] | IC50 [4] [nM]
1 | CNC(=O)c1n[nH]c2cc(-c3cc(F)c(O)cc3CC(F)(F)F)nc(NCc3cc(C)cnc3N(C)S(C)(=O)=O)c12 [Example 67, 6-[5-fluoro-4-hydroxy-2-(2,2,2-trifluoroethyl)phenyl]-N-methyl-4-[({5-methyl-2-[methyl(methylsulfonyl)amino]pyridin-3-yl}methyl)amino]-1H-pyrazolo[4,3-c]pyridine-3-carboxamide] | 72.8 | 48.2 | 2030 | 16.3
2 | CNC(=O)c1n[nH]c2cc(-c3cc(F)c(O)cc3CC(F)(F)F)nc(NCc3ccccc3N(C)S(=O)(=O)c3cccnc3)c12 [Example 68, 6-[5-fluoro-4-hydroxy-2-(2,2,2-trifluoroethyl)phenyl]-N-methyl-4-({2-[methyl(pyridin-3-ylsulfonyl)amino]-benzyl}amino)-1H-pyrazolo[4,3-c]pyridine-3-carboxamide] | 253 | 72.7 | 72.3 | 14.2
3 | Cc1ccc(S(=O)(=O)N(C)c2ccccc2CNc2nc(-c3cc(F)c(O)cc3CC(F)(F)F)cc3[nH]nc(C(N)=O)c23)cn1 [Example 70, 6-[5-fluoro-4-hydroxy-2-(2,2,2-trifluoroethyl)phenyl]-4-[(2-{methyl[(6-methylpyridin-3-yl)sulfonyl]amino}benzyl)amino]-1H-pyrazolo[4,3-c]pyridine-3-carboxamide] | 208 | 52.4 | 79.4 | 12
4 | CCc1cc(O)c(F)cc1-c1cc2[nH]nc(C(N)=O)c2c(NCc2ccccc2N(C)S(=O)(=O)c2ccccc2)n1 [Example 40, 6-(2-Ethyl-5-fluoro-4-hydroxyphenyl)-4-({2-[methyl(phenylsulfonyl)amino]benzyl}amino)-1H-pyrazolo[4,3-c]pyridine-3-carboxamide] | 130 | 23.1 | 18.1 | 4.6
5 | CCN(c1ccccc1CNc1nc(-c2cc(F)c(O)cc2CC(F)(F)F)cc2[nH]nc(C(=O)NC)c12)S(=O)(=O)CC [Example 1, 4-({2-[Ethyl(ethylsulfonyl)amino]benzyl}amino)-6-[5-fluoro-4-hydroxy-2-(2,2,2-trifluoroethyl)phenyl]-N-methyl-1H-pyrazolo[4,3-c]pyridine-3-carboxamide] | 177 | 38.1 | 36.5 | 8
6 | CNC(=O)c1n[nH]c2cc(-c3cc(F)c(O)cc3CC(F)(F)F)nc(NCC3CCCC3)c12 [Example 17, 4-[(cyclopentylmethyl)-amino]-6-[5-fluoro-4-hydroxy-2-(2,2,2-trifluoro-ethyl)phenyl]-N-methyl-1H-pyrazolo[4,3-c]pyridine-3-carboxamide] | 256 | 52.9 | 142 | 18.5
7 | CCN(c1nccnc1CNc1nc(-c2cc(F)c(O)cc2CC(F)(F)F)cc2[nH]nc(C(=O)NC)c12)S(C)(=O)=O [Example 45, 4-[({3-[ethyl(methyl-sulfonyl)-amino]pyrazin-2-yl}methyl)amino]-6-[5-fluoro-4-hydroxy-2-(2,2,2-trifluoroethyl)phenyl]-N-methyl-1H-pyrazolo[4,3-c]pyridine-3-carboxamide] | 68.7 | 18.9 | 148 | 4
8 | CCc1cc(O)c(F)cc1-c1cc2[nH]nc(C(=O)NC)c2c(N[C@H](C)c2ccccc2N(C)S(C)(=O)=O)n1 [Example 38, 6-(2-Ethyl-5-fluoro-4-hydroxyphenyl)-N-methyl-4-{[(1R)-1-{2-[methyl(methylsulfonyl)amino]phenyl}ethyl]amino}-1H-pyrazolo[4,3-c]pyridine-3-carboxamide] | 122 | 25 | 17.8 | 4
9 | CN(c1ccccc1CNc1nc(-c2cc(F)c(O)cc2CC(F)(F)F)cc2[nH]nc(C(N)=O)c12)S(=O)(=O)CCCN1CCOCC1 [Example 66, 6-[5-fluoro-4-hydroxy-2-(2,2,2-trifluoroethyl)phenyl]-4-{[2-(methyl{[3-(morpholin-4-yl)propyl]sulfonyl}-amino)benzyl]amino}-1H-pyrazolo[4,3-c]pyridine-3-carboxamide] | 60 | 14.8 | 81.3 | 3.5

Results, then the compound that gave them:

Row | IC50 [1] [nM] | IC50 [2] [nM] | IC50 [3] [nM] | IC50 [4] [nM] | Structure (SMILES)
10 | 175 | 59.1 | 698 | 10.7 | CCN(c1ncc(F)cc1CNc1nc(-c2cc(F)c(O)cc2CC(F)(F)F)cc2[nH]nc(C(N)=O)c12)S(C)(=O)=O [Example 79, 4-[({2-[ethyl(methylsulfonyl)amino]-5-fluoropyridin-3-yl}methyl)amino]-6-[5-fluoro-4-hydroxy-2-(2,2,2-trifluoroethyl)phenyl]-1H-pyrazolo[4,3-c]pyridine-3-carboxamide]
11 | 27.9 | 7.9 | 885 | 3.4 | CCc1cc(O)c(F)cc1-c1cc2[nH]ncc2c(N(C)Cc2cc(C)ccc2N(CC)S(C)(=O)=O)n1 [Example 142, N-ethyl-N-[2-({[6-(2-ethyl-5-fluoro-4-hydroxyphenyl)-1H-pyrazolo[4,3-c]pyridin-4-yl](methyl)-amino}methyl)-4-methylphenyl]methanesulfonamide]
12 | 22.4 | 4.3 | 8.7 | 0.8 | CCc1cc(O)c(F)cc1-c1cc2[nH]ncc2c(NCc2ccccc2N(CC)S(=O)(=O)CC)n1 [Example 136, N-ethyl-N-[2-({[6-(2-ethyl-5-fluoro-4-hydroxyphenyl)-1H-pyrazolo[4,3-c]pyridin-4-yl]amino}methyl)phenyl]ethanesulfonamide hydrochloride]
13 | 134 | 50.3 | 180 | 9.3 | CC(CO)CNc1nc(-c2cc(F)c(O)cc2CC(F)(F)F)nc2[nH]nc(-c3nc4c([nH]3)CCN(Cc3ccccc3)C4)c12 (stereo not drawn) [Example 173, 4-(3-(5-Benzyl-4,5,6,7-tetrahydro-1H-imidazo[4,5-c]pyridin-2-yl)-4-((3-hydroxy-2-methylpropyl)amino)-1H-pyrazolo[3,4-d]pyrimidin-6-yl)-2-fluoro-5-(2,2,2-trifluoroethyl)phenol]
14 | 22.7 | 14.5 | 764 | 2.7 | CN(c1ccccc1CNCc1nc(-c2cc(F)c(O)cc2CC(F)(F)F)cc2[nH]ncc12)S(C)(=O)=O [Example 149]
15 | 201 | 63.3 | 139 | 12.1 | CCN(c1ccc(F)cc1CNc1nc(-c2cc(F)c(O)cc2CC(F)(F)F)cc2[nH]nc(C(N)=O)c12)S(C)(=O)=O [Example 83, 4-((2-(N-ethylmethylsulfonamido)-5-fluorobenzyl)amino)-6-(5-fluoro-4-hydroxy-2-(2,2,2-trifluoro-ethyl)phenyl)-1H-pyrazolo[4,3-c]pyridine-3-carboxamide]
16 | 80.9 | 18.8 | 33.9 | 5.4 | CCc1cc(O)c(F)cc1-c1cc2[nH]nc(C(=O)NC)c2c(NCc2ccccc2N(C)S(N)(=O)=O)n1 [Example 73, 6-(2-ethyl-5-fluoro-4-hydroxyphenyl)-N-methyl-4-({2-[methyl(sulfamoyl)-amino]benzyl}amino)-1H-pyrazolo[4,3-c]pyridine-3-carboxamide]
17 | 30.5 | 5.9 | 249 | 1.2 | CCc1cc(O)c(F)cc1-c1cc2[nH]ncc2c(NCc2cc(Cl)ccc2N(C)S(C)(=O)=O)n1 [Example 133, N-[4-chloro-2-({[6-(2-ethyl-5-fluoro-4-hydroxyphenyl)-1H-pyrazolo[4,3-c]pyridin-4-yl]amino}methyl)phenyl]-N-methylmethanesulfonamide hydrochloride]
18 | 207 | 241 | 7460 | 74 | CC(C)CNc1nc(-c2cc(F)c(O)cc2CC(F)(F)F)nc2[nH]ncc12 [Example 153, 2-fluoro-4-{4-[(2-methyl-propyl)amino]-1H-pyrazolo[3,4-d]pyrimidin-6-yl}-5-(2,2,2-trifluoroethyl)phenol]
19 | 18.4 | 31.4 | 1290 | 19 | CCc1cc(O)c(F)cc1-c1cc2[nH]ncc2c(NCc2cc(C)ccc2N(C)S(C)(=O)=O)n1 [Example 132, N-[2-({[6-(2-ethyl-5-fluoro-4-hydroxyphenyl)-1H-pyrazolo[4,3-c]pyridin-4-yl]amino}methyl)-4-methylphenyl]-N-methylmethanesulfonamide hydrochloride]
20 | 3.3 | 0.3 | 45.4 | < 0.1 | CCCN(c1ccccc1CNc1nc(-c2cc(F)c(O)cc2CC)cc2[nH]ncc12)S(C)(=O)=O [Example 137, N-[2-({[6-(2-Ethyl-5-fluoro-4-hydroxyphenyl)-1H-pyrazolo[4,3-c]pyridin-4-yl]amino}methyl)phenyl]-N-propylmethanesulfonamide]
21 | 120 | 26.9 | 35 | 5.4 | CNC(=O)c1n[nH]c2nc(-c3cc(F)c(O)cc3CC(F)(F)F)nc(NCc3ccccc3N(C)S(=O)(=O)NC)c12 [Example 110, 6-(5-Fluoro-4-hydroxy-2-(2,2,2-trifluoroethyl)phenyl)-N-methyl-4-((2-(methyl(N-methylsulfamoyl)amino)benzyl)amino)-1H-pyrazolo[3,4-d]pyrimidine-3-carboxamide]
